Some test systems named below: OVCAR-3 ovarian; TK-10 renal; RPMI-8226 leukemia; SK-MEL-28 melanoma; SK-MEL-5 melanoma; HCT-116 colon; SF-539 CNS; OVCAR-5 ovarian; M14 melanoma; U251 CNS; HOP-62 NSCLC; LOX IMVI melanoma; HOP-92 NSCLC; UACC-257 melanoma; MALME-3M melanoma; RXF 393 renal.
What all share (assay): growth of human tumour cells (NCI), 48 h

Molecules are shown by their SMILES.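 Step 1: Grow cells in 96-well plates. Step 2: Expose to compound for 48 hours at 5 concentrations. Step 3: Interpolate endpoints linearly; if unreached, use highest concentration. TGI: concentration producing complete growth inhibition.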

For `COC(=O)c1c/c(=N\NC(=O)CC(=O)Nc2ccccc2OC)c2ccccc2o1`, the TGI in the experiment on OVCAR-3 ovarian, with TK-10 renal, in the experiment with RPMI-8226 leukemia, in the experiment with SK-MEL-28 melanoma, in the experiment with SK-MEL-5 melanoma and with HCT-116 colon was greater than 100 µM throughout. Besides, the TGI in the experiment on SF-539 CNS, with OVCAR-5 ovarian, in the experiment with M14 melanoma, with U251 CNS, with HOP-62 NSCLC and in the experiment with LOX IMVI melanoma was greater than 100 µM each time.

For the molecule `CSC(C1c2ccccc2N(c2ccc(C)cc2)C2=NC(=O)N(C)C(=O)C21Cl)S(=O)(=O)c1ccc(C)cc1` (stereo not given), the TGI in the experiment with OVCAR-3 ovarian was 30.9 µM; in the experiment with TK-10 renal it was greater than 100 µM; in the experiment on RPMI-8226 leukemia it was 57 µM; in the experiment with SK-MEL-28 melanoma, 45.1 µM; with HOP-92 NSCLC, 27.9 µM; in the experiment with UACC-257 melanoma it was 57.2 µM. In addition, the TGI amounted to 32.3 µM in the experiment on SK-MEL-5 melanoma; 25.7 µM with HCT-116 colon; 34.3 µM in the experiment on SF-539 CNS; 83.2 µM in the experiment with OVCAR-5 ovarian; 72.3 µM in the experiment on M14 melanoma; 38.9 µM with U251 CNS. Moreover, the TGI was 43.3 µM with HOP-62 NSCLC, 32.6 µM in the experiment on MALME-3M melanoma and 40.3 µM in the experiment on LOX IMVI melanoma.

Turning to `CC(C)(C)C1C=C(Sc2ccccc2)C(=O)O1` (stereo not given), the TGI in the experiment on OVCAR-3 ovarian is greater than 100 µM; in the experiment on TK-10 renal, greater than 100 µM; in the experiment on RPMI-8226 leukemia it was greater than 100 µM; in the experiment with SK-MEL-28 melanoma, greater than 100 µM; in the experiment with HOP-92 NSCLC, 75.2 µM; in the experiment on UACC-257 melanoma it was greater than 100 µM. Further, the TGI in the experiment on HCT-116 colon, in the experiment with SF-539 CNS, with OVCAR-5 ovarian, in the experiment with M14 melanoma, with U251 CNS and in the experiment with HOP-62 NSCLC was greater than 100 µM in each case. The TGI in the experiment on MALME-3M melanoma and with LOX IMVI melanoma was greater than 100 µM throughout.

For the molecule `COC(=O)/C=C/c1cc(OC)c(OC)c(OC)c1`, the TGI in the experiment with OVCAR-3 ovarian, in the experiment with RXF 393 renal, with TK-10 renal, with SK-MEL-28 melanoma, with HOP-92 NSCLC and with UACC-257 melanoma was greater than 100 µM each time. Further, the TGI with SK-MEL-5 melanoma, with HCT-116 colon, in the experiment with SF-539 CNS, with M14 melanoma, in the experiment on HOP-62 NSCLC and in the experiment with MALME-3M melanoma was greater than 100 µM each time. The molecule also gave a TGI in the experiment with LOX IMVI melanoma greater than 100 µM.

As for `CCCCN=C(NC#N)NCCCC`, the TGI in the experiment on OVCAR-3 ovarian, in the experiment with RXF 393 renal, in the experiment on TK-10 renal, with RPMI-8226 leukemia, with SK-MEL-28 melanoma and in the experiment with HOP-92 NSCLC was greater than 100 µM each time. Further, the TGI in the experiment with UACC-257 melanoma, in the experiment with SK-MEL-5 melanoma, in the experiment with HCT-116 colon, with SF-539 CNS, in the experiment with OVCAR-5 ovarian and in the experiment with M14 melanoma was greater than 100 µM in each case. For the same molecule, the TGI with U251 CNS, in the experiment with HOP-62 NSCLC and in the experiment on MALME-3M melanoma was greater than 100 µM each time.

Take `COC1(OC)CCCCC2c3cccc(OC(C)=O)c3C21OC(C)=O` (stereo not given): the TGI in the experiment with OVCAR-3 ovarian, with TK-10 renal, in the experiment on RPMI-8226 leukemia, in the experiment on SK-MEL-28 melanoma, with UACC-257 melanoma and with SK-MEL-5 melanoma was greater than 100 µM throughout. The TGI in the experiment on HCT-116 colon, with SF-539 CNS, in the experiment with OVCAR-5 ovarian, with M14 melanoma, with HOP-62 NSCLC and with MALME-3M melanoma was greater than 100 µM each time. This molecule registered a TGI in the experiment with LOX IMVI melanoma greater than 100 µM.

Regarding `O=C(O)C(CS)N=c1c2ccccc2n(O)c2ccccc12` (stereo not given), the TGI with OVCAR-3 ovarian, with TK-10 renal, in the experiment with RPMI-8226 leukemia, in the experiment with SK-MEL-28 melanoma, in the experiment on UACC-257 melanoma and in the experiment with SK-MEL-5 melanoma was greater than 100 µM each time. For the same molecule, the TGI with HCT-116 colon, in the experiment with OVCAR-5 ovarian, in the experiment on M14 melanoma, in the experiment with U251 CNS, in the experiment with HOP-62 NSCLC and in the experiment on MALME-3M melanoma was greater than 100 µM each time. The same molecule gave a TGI in the experiment with LOX IMVI melanoma greater than 100 µM.

`COC(=O)C1CC2(c3ccccc3)C(=O)c3ccccc3N2O1` (stereo not given): the TGI with OVCAR-3 ovarian was greater than 100 µM; in the experiment on TK-10 renal, greater than 100 µM; with RPMI-8226 leukemia it was 57 µM; in the experiment with SK-MEL-28 melanoma, greater than 100 µM; with HOP-92 NSCLC, greater than 100 µM; in the experiment with UACC-257 melanoma, greater than 100 µM. For the same molecule, the TGI in the experiment with SK-MEL-5 melanoma, with HCT-116 colon, with SF-539 CNS, with OVCAR-5 ovarian, in the experiment with M14 melanoma and in the experiment with U251 CNS was greater than 100 µM throughout. Moreover, the TGI in the experiment with HOP-62 NSCLC was greater than 100 µM; with MALME-3M melanoma, greater than 100 µM; in the experiment with LOX IMVI melanoma, 81.7 µM.

The values above are taken from PubChem BioAssay (NCI).
